In patent US7759345B2, “Antitumoral derivatives of ET-743” (priority 2001, dated 2010):
pIC50: −log10 of the molar value.

What was measured:
P-388 = assay: Inhibition of cell growth by counting cells, P-388; assay type: cell-based, mouse; details: Mus musculus, P388, 72 h; three days of incubation; read-out: IC50 (molar) P-388
In short: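 IC50 is the sample concentration halving growth, taken from dose-response curves of cell counts (Coulter counter, duplicate wells) relative to drug-free cultures. P-388 (DBA/2 mouse lymphoid neoplasm) cells plated at 1×10^4 per well in EMEM with 5% FCS plus test sample.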

A-549 = assay: Inhibition of cell growth by counting cells, A-549; assay type: cell-based, human; details: Homo sapiens, A549, 72 h; three days of incubation; read-out: IC50 (molar) A-549
In short: (§1)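 Counts are net cells per well, averaged from duplicate wells, obtained by Coulter counting after trypsinization following 72 h of exposure at 37 °C. Seeding was 1×10^4 cells per well in EMEM/5% FCS with varied sample concentrations, alongside untreated growth controls. IC50 values derive from dose-response curves of % growth.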

HT-29 = assay: Inhibition of cell growth by counting cells, HT-29; assay type: cell-based, human; details: Homo sapiens, HT-29, 72 h; three days of incubation; read-out: IC50 (molar) HT-29
In short: as §1

MEL-28 = assay: Inhibition of cell growth by counting cells, MEL-28; assay type: cell-based, human; details: Homo sapiens, SK-MEL-28, 72 h; three days of incubation; read-out: IC50 (molar) MEL-28
In short: as §1

DU-145 = assay: Inhibition of cell growth by counting cells, DU-145; assay type: cell-based, human; details: Homo sapiens, DU-145, 72 h; three days of incubation; read-out: IC50 (molar) DU-145
In short: as §1

Description for Heart: (§2) Toxicity was asssessed by the methods reported in Toxicology in Vitro, 15 (2001) 571-577, J. Luber Narod et al.: “Evaluation of the use of in vitro methodolodies as tools for screening new compounds for potential in vivo toxicity”.
Description for Kidney: as §2
Description for Liver: as §2
Description for Myelo: as §2
Description for Skeletal: as §2

## CCN1CCc2cc(O)c(OC)cc2[C@@]12CS[C@@H]1c3c(OC(C)=O)c(C)c4c(c3[C@H](COC2=O)N2C1[C@H]1c3c(cc(C)c(OC)c3O)C[C@@H]([C@@H]2O)N1C)OCO4 (stereo partly drawn) [Compound 94]
P-388
  pIC50: 9.82
A-549
  pIC50: 9.82
HT-29
  pIC50: 9.82
MEL-28
  pIC50: 9.82
Liver
  Toxicity Data Liver: 1.24E-08
Heart
  Toxicity Data Heart: 6.66E-08
Myelo
  Toxicity Data Myelo: 1.13E-08
Skeletal
  Toxicity Data Skeletal: 1.44E-09
Kidney
  Toxicity Data Kidney: 3.49E-09

## COc1cc2c(cc1OC(=O)OCc1ccccc1)CCN[C@]21CS[C@@H]2c3c(OC(C)=O)c(C)c4c(c3[C@H](COC1=O)N1C2[C@H]2c3c(cc(C)c(OC)c3O)C[C@@H]([C@@H]1O)N2C)OCO4 (stereo partly drawn) [Compound 65]
P-388
  pIC50: 9.95
A-549
  pIC50: 9.95
HT-29
  pIC50: 9.95
MEL-28
  pIC50: 9.95
DU-145
  pIC50: 9.95
Liver
  Toxicity Data Liver: 5.30E-09
Heart
  Toxicity Data Heart: 9.00E-09
Myelo
  Toxicity Data Myelo: 1.70E-08
Skeletal
  Toxicity Data Skeletal: 3.77E-09
Kidney
  Toxicity Data Kidney: 3.15E-09

## COc1cc2c(cc1OC(=O)OC(C)(C)C)CCN[C@]21CS[C@@H]2c3c(OC(C)=O)c(C)c4c(c3[C@H](COC1=O)N1C2[C@H]2c3c(cc(C)c(OC)c3OC(=O)OC(C)(C)C)C[C@@H]([C@@H]1O)N2C)OCO4 (stereo partly drawn) [Compound 86]
P-388
  pIC50: 9.28
A-549
  pIC50: 9.28
HT-29
  pIC50: 9.28
MEL-28
  pIC50: 9.28
DU-145
  pIC50: 9.28
Liver
  Toxicity Data Liver: 1.47E-08
Heart
  Toxicity Data Heart: 8.16E-08
Myelo
  Toxicity Data Myelo: 8.35E-08
Skeletal
  Toxicity Data Skeletal: 3.88E-08
Kidney
  Toxicity Data Kidney: 1.37E-08

## COc1cc2c(cc1O)CCN[C@]21CS[C@@H]2c3c(OC(=O)/C=C/c4ccccc4)c(C)c4c(c3[C@H](COC1=O)N1C2[C@H]2c3c(cc(C)c(OC)c3O)C[C@@H]([C@@H]1O)N2C)OCO4 (stereo partly drawn) [Compound 161]
P-388
  pIC50: 9.93
A-549
  pIC50: 9.93
HT-29
  pIC50: 9.93
MEL-28
  pIC50: 9.93
DU-145
  pIC50: 9.93
Liver
  Toxicity Data Liver: 8.58E-09
Heart
  Toxicity Data Heart: 1.13E-08
Myelo
  Toxicity Data Myelo: 2.27E-08
Skeletal
  Toxicity Data Skeletal: 1.65E-08
Kidney
  Toxicity Data Kidney: 2.60E-09

## CCCCCCCC(=O)Oc1cc2c(cc1OC)[C@@]1(CS[C@@H]3c4c(OC(C)=O)c(C)c5c(c4[C@H](COC1=O)N1C3[C@H]3c4c(cc(C)c(OC)c4O)C[C@@H]([C@@H]1O)N3C)OCO5)NCC2 (stereo partly drawn) [Compound 59]
P-388
  pIC50: 9.95
A-549
  pIC50: 9.95
HT-29
  pIC50: 9.95
MEL-28
  pIC50: 9.95
DU-145
  pIC50: 9.95
Liver
  Toxicity Data Liver: 2.53E-08
Heart
  Toxicity Data Heart: 8.14E-08
Myelo
  Toxicity Data Myelo: 4.18E-08
Skeletal
  Toxicity Data Skeletal: 1.46E-07
Kidney
  Toxicity Data Kidney: 2.87E-08

## COc1cc2c(cc1OC(=O)/C=C/c1ccccc1)CCN[C@]21CS[C@@H]2c3c(OC(C)=O)c(C)c4c(c3[C@H](COC1=O)N1C2[C@H]2c3c(cc(C)c(OC)c3O)C[C@@H]([C@@H]1O)N2C)OCO4 (stereo partly drawn) [Compound 61]
P-388
  pIC50: 9.95
A-549
  pIC50: 9.95
HT-29
  pIC50: 9.95
MEL-28
  pIC50: 9.95
DU-145
  pIC50: 9.95
Liver
  Toxicity Data Liver: 1.32E-08
Heart
  Toxicity Data Heart: 2.76E-08
Myelo
  Toxicity Data Myelo: 1.69E-08
Skeletal
  Toxicity Data Skeletal: 1.47E-08
Kidney
  Toxicity Data Kidney: 5.12E-09

## C=CCOc1cc2c(cc1OC)[C@@]1(CS[C@@H]3c4c(OC(C)=O)c(C)c5c(c4[C@H](COC1=O)N1C3[C@H]3c4c(cc(C)c(OC)c4O)C[C@@H]([C@@H]1O)N3C)OCO5)NCC2 (stereo partly drawn) [Compound 70]
P-388
  pIC50: 9.90
A-549
  pIC50: 9.90
HT-29
  pIC50: 9.90
MEL-28
  pIC50: 9.90
DU-145
  pIC50: 9.90
Liver
  Toxicity Data Liver: 3.16E-08
Heart
  Toxicity Data Heart: 2.20E-07
Myelo
  Toxicity Data Myelo: 6.61E-08
Skeletal
  Toxicity Data Skeletal: 3.67E-08
Kidney
  Toxicity Data Kidney: 1.07E-07

## COc1cc2c(cc1OC(=O)C(F)(F)F)CCN[C@]21CS[C@@H]2c3c(OC(C)=O)c(C)c4c(c3[C@H](COC1=O)N1C2[C@H]2c3c(cc(C)c(OC)c3O)C[C@@H]([C@@H]1O)N2C)OCO4 (stereo partly drawn) [Compound 104]
P-388
  pIC50: 9.93
A-549
  pIC50: 9.23
HT-29
  pIC50: 9.23
MEL-28
  pIC50: 9.23
DU-145
  pIC50: 9.23
Liver
  Toxicity Data Liver: 4.16E-09
Heart
  Toxicity Data Heart: 3.44E-09
Myelo
  Toxicity Data Myelo: 1.93E-08
Skeletal
  Toxicity Data Skeletal: 4.10E-07
Kidney
  Toxicity Data Kidney: 2.67E-09

## COc1cc2c(cc1OC(=O)[C@H](C)NC(=O)OC(C)(C)C)CCN[C@]21CS[C@@H]2c3c(OC(C)=O)c(C)c4c(c3[C@H](COC1=O)N1C2[C@H]2c3c(cc(C)c(OC)c3O)C[C@@H]([C@@H]1O)N2C)OCO4 (stereo partly drawn) [Compound 79]
A-549
  pIC50: 9.97
HT-29
  pIC50: 9.97
Liver
  Toxicity Data Liver: 2.28E-08
Heart
  Toxicity Data Heart: 3.46E-08
Myelo
  Toxicity Data Myelo: 1.35E-08
Skeletal
  Toxicity Data Skeletal: 2.75E-09
Kidney
  Toxicity Data Kidney: 1.74E-08

## C=CCOC(=O)Oc1cc2c(cc1OC)[C@@]1(CS[C@@H]3c4c(OC(C)=O)c(C)c5c(c4[C@H](COC1=O)N1C3[C@H]3c4c(cc(C)c(OC)c4O)C[C@@H]([C@@H]1O)N3C)OCO5)NCC2 (stereo partly drawn) [Compound 64]
P-388
  pIC50: 9.93
A-549
  pIC50: 9.23
HT-29
  pIC50: 9.23
MEL-28
  pIC50: 9.23
Liver
  Toxicity Data Liver: 2.57E-08
Heart
  Toxicity Data Heart: 5.50E-08
Myelo
  Toxicity Data Myelo: 1.93E-08
Skeletal
  Toxicity Data Skeletal: 1.66E-09
Kidney
  Toxicity Data Kidney: 1.77E-08

## COc1cc2c(cc1O)CCN[C@]21CS[C@@H]2c3c(OC(C)=O)c(C)c4c(c3[C@H](COC1=O)N1C2[C@H]2c3c(cc(C)c(OC)c3OC)C[C@@H]([C@@H]1O)N2C)OCO4 (stereo partly drawn) [Compound 98]
A-549
  pIC50: 9.89
HT-29
  pIC50: 9.89
Liver
  Toxicity Data Liver: 4.21E-08
Heart
  Toxicity Data Heart: 4.98E-08
Myelo
  Toxicity Data Myelo: 3.79E-08
Skeletal
  Toxicity Data Skeletal: 1.24E-08
Kidney
  Toxicity Data Kidney: 1.08E-06
